Broadly, the melting point is the temperature, or range, at which the solid turns liquid. With `N#Cc1ccc(NC(=O)c2c(O)ccc3ccccc23)c(OC(F)(F)F)c1` [Example 2, 2-Hydroxy-naphthalene-1-carboxylic acid(4-cyano-2-trifluoromethoxy-phenyl)-amide], the melting point was determined as 169 °C.
The figure for `N#Cc1ccc(NC(=O)c2cc3ccccc3cc2O)c(OC(F)(F)F)c1` [Example 3, 3-Hydroxy-naphthalene-2-carboxylic acid(4-cyano-2-trifluoromethoxy-phenyl)-amide] is 248 °C; for `N#Cc1ccc(NC(=O)c2ccc3ccccc3c2O)c(OC(F)(F)F)c1` [Example 1, 1-Hydroxy-naphthalene-2-carboxylic acid(4-cyano-2-trifluoromethoxy-phenyl)-amide] it is 178 °C.

Values taken from patent publication US20080234381A1, “Novel Trifluoromethoxy-Substituted Aryl Anilides” (Novo Nordisk A/S, priority 2005, published 2008).
